Experiments:
Format in all cases: functional
[1] = Growth inhibition of human SNB75 cells at 10 uM after 48 hrs by sulforhodamine B assay; settings: SNB-75, 48 h, values are per cent of control
[2] = test system: U-251; assay: Growth inhibition of human U251 cells at 10 uM after 48 hrs by sulforhodamine B assay; settings: U-251, 48 h, values are per cent of control
[3] = Growth inhibition of human LOXIMVI cells at 10 uM after 48 hrs by sulforhodamine B assay; settings: LOX IMVI, values are per cent of control
[4] = test system: M14; assay: Growth inhibition of human M14 cells at 10 uM after 48 hrs by sulforhodamine B assay; settings: M14, 48 h, values are per cent of control
[5] = test system: MDA-MB-435; assay: Growth inhibition of human MDA-MB-435 cells at 10 uM after 48 hrs by sulforhodamine B assay; settings: MDA-MB-435, 48 h, values are per cent of control
[6] = test system: SK-MEL-2; assay: Growth inhibition of human SK-MEL-2 cells at 10 uM after 48 hrs by sulforhodamine B assay; settings: SK-MEL-2, 48 h, values are per cent of control
[7] = test system: SK-MEL-28; assay: Growth inhibition of human SK-MEL-28 cells at 10 uM after 48 hrs by sulforhodamine B assay; settings: SK-MEL-28, 48 h, values are per cent of control
[8] = test system: SK-MEL-5; assay: Growth inhibition of human SK-MEL-5 cells at 10 uM after 48 hrs by sulforhodamine B assay; settings: SK-MEL-5, 48 h, values are per cent of control
[9] = Growth inhibition of human OVCAR4 cells at 10 uM after 48 hrs by sulforhodamine B assay; settings: OVCAR-4, 48 h, values are per cent of control
[10] = Growth inhibition of human OVCAR5 cells at 10 uM after 48 hrs by sulforhodamine B assay; settings: OVCAR-5, 48 h, values are per cent of control
[11] = Growth inhibition of human OVCAR8 cells at 10 uM after 48 hrs by sulforhodamine B assay; settings: OVCAR-8, 48 h, values are per cent of control
[12] = Growth inhibition of human NCI-ADR-RES cells at 10 uM after 48 hrs by sulforhodamine B assay; settings: values are per cent of control
[13] = Growth inhibition of human SKOV3 cells at 10 uM after 48 hrs by sulforhodamine B assay; settings: SK-OV-3, 48 h, values are per cent of control
[14] = test system: 786-0; assay: Growth inhibition of human 786-0 cells at 10 uM after 48 hrs by sulforhodamine B assay; settings: 786-0, 48 h, values are per cent of control
[15] = test system: A498; assay: Growth inhibition of human A498 cells at 10 uM after 48 hrs by sulforhodamine B assay; settings: A498, 48 h, values are per cent of control
[16] = test system: ACHN; assay: Growth inhibition of human ACHN cells at 10 uM after 48 hrs by sulforhodamine B assay; settings: values are per cent of control
[17] = Growth inhibition of human Caki1 cells at 10 uM after 48 hrs by sulforhodamine B assay; settings: CAKI-1, 48 h, values are per cent of control
[18] = Growth inhibition of human RXF393 cells at 10 uM after 48 hrs by sulforhodamine B assay; settings: RXF 393, 48 h, values are per cent of control
[19] = test system: SN12C; assay: Growth inhibition of human SN12C cells at 10 uM after 48 hrs by sulforhodamine B assay; settings: values are per cent of control
[20] = Growth inhibition of human TK10 cells at 10 uM after 48 hrs by sulforhodamine B assay; settings: TK-10, 48 h, values are per cent of control
[21] = Growth inhibition of human UO31 cells at 10 uM after 48 hrs by sulforhodamine B assay; settings: UO-31, 48 h, values are per cent of control
[22] = Growth inhibition of human DU145 cells at 10 uM after 48 hrs by sulforhodamine B assay; settings: DU-145, 48 h, values are per cent of control
[23] = test system: MDA-MB-231; assay: Growth inhibition of human MDA-MB-231 cells at 10 uM after 48 hrs by sulforhodamine B assay; settings: MDA-MB-231, 48 h, values are per cent of control
[24] = Growth inhibition of human BT549 cells at 10 uM after 48 hrs by sulforhodamine B assay; settings: BT-549, 48 h, values are per cent of control
[25] = test system: MDA-MB-468; assay: Growth inhibition of human MDA-MB-468 cells at 10 uM after 48 hrs by sulforhodamine B assay; settings: MDA-MB-468, 48 h, values are per cent of control
[26] = test system: K562; assay: Growth inhibition of human K562 cells at 10 uM after 48 hrs by sulforhodamine B assay; settings: K562, 48 h, values are per cent of control
[27] = test system: A549; assay: Growth inhibition of human A549/ATCC cells at 10 uM after 48 hrs by sulforhodamine B assay; settings: A549, 48 h, values are per cent of control
[28] = Growth inhibition of human HOP62 cells at 10 uM after 48 hrs by sulforhodamine B assay; settings: HOP-62, 48 h, values are per cent of control
[29] = test system: NCI-H226; assay: Growth inhibition of human NCI-H226 cells at 10 uM after 48 hrs by sulforhodamine B assay; settings: NCI-H226, 48 h, values are per cent of control
[30] = test system: NCI-H322M; assay: Growth inhibition of human NCI-H322M cells at 10 uM after 48 hrs by sulforhodamine B assay; settings: values are per cent of control
[31] = test system: NCI-H460; assay: Growth inhibition of human NCI-H460 cells at 10 uM after 48 hrs by sulforhodamine B assay; settings: NCI-H460, 48 h, values are per cent of control
[32] = Growth inhibition of human COLO205 cells at 10 uM after 48 hrs by sulforhodamine B assay; settings: COLO 205, 48 h, values are per cent of control
[33] = Growth inhibition of human HCT116 cells at 10 uM after 48 hrs by sulforhodamine B assay; settings: HCT-116, 48 h, values are per cent of control
[34] = test system: HT-29; assay: Growth inhibition of human HT-29 cells at 10 uM after 48 hrs by sulforhodamine B assay; settings: HT-29, 48 h, values are per cent of control
[35] = test system: KM12; assay: Growth inhibition of human KM12 cells at 10 uM after 48 hrs by sulforhodamine B assay; settings: KM12, 48 h, values are per cent of control
[36] = Growth inhibition of human SW620 cells at 10 uM after 48 hrs by sulforhodamine B assay; settings: SW-620, 48 h, values are per cent of control
[37] = Growth inhibition of human SF268 cells at 10 uM after 48 hrs by sulforhodamine B assay; settings: SF-268, 48 h, values are per cent of control
[38] = Growth inhibition of human SF295 cells at 10 uM after 48 hrs by sulforhodamine B assay; settings: SF-295, 48 h, values are per cent of control
[39] = Growth inhibition of human SF539 cells at 10 uM after 48 hrs by sulforhodamine B assay; settings: SF-539, 48 h, values are per cent of control
[40] = Growth inhibition of human SNB19 cells at 10 uM after 48 hrs by sulforhodamine B assay; settings: SNB-19, 48 h, values are per cent of control

| Structure (SMILES) | growth, % of control at 10 µM [1] | growth, % of control at 10 µM [2] | growth, % of control at 10 µM [3] | growth, % of control at 10 µM [4] | growth, % of control at 10 µM [5] | growth, % of control at 10 µM [6] | growth, % of control at 10 µM [7] | growth, % of control at 10 µM [8] | growth, % of control at 10 µM [9] | growth, % of control at 10 µM [10] | growth, % of control at 10 µM [11] | growth, % of control at 10 µM [12] | growth, % of control at 10 µM [13] | growth, % of control at 10 µM [14] | growth, % of control at 10 µM [15] | growth, % of control at 10 µM [16] | growth, % of control at 10 µM [17] | growth, % of control at 10 µM [18] | growth, % of control at 10 µM [19] | growth, % of control at 10 µM [20] | further results |
| --- | --- | --- | --- | --- | --- | --- | --- | --- | --- | --- | --- | --- | --- | --- | --- | --- | --- | --- | --- | --- | --- |
| COc1cc(/C=C(\C#N)c2ccc3c(c2)OCO3)cc(OC)c1 | 68.9% | 93.7% | 103% | 99.5% | 100% | 94.4% | 106% | 97.3% | 82.9% | 111% | 92.3% | 99.7% | 101% | 94.5% | 88.9% | 108% | 96.5% | 106% | 95.3% | 95.6% | growth, % of control at 10 µM [21]: 78.6%; growth, % of control at 10 µM [22]: 94.4%; growth, % of control at 10 µM [23]: 92.5%; growth, % of control at 10 µM [24]: 86.4%; growth, % of control at 10 µM [25]: 98.7%; growth, % of control at 10 µM [26]: 98.7%; growth, % of control at 10 µM [27]: 84.6%; growth, % of control at 10 µM [28]: 92.3%; growth, % of control at 10 µM [29]: 99.8%; growth, % of control at 10 µM [30]: 89.5%; growth, % of control at 10 µM [31]: 102%; growth, % of control at 10 µM [32]: 97.7%; growth, % of control at 10 µM [33]: 96.3%; growth, % of control at 10 µM [34]: 92.4%; growth, % of control at 10 µM [35]: 94.6%; growth, % of control at 10 µM [36]: 102%; growth, % of control at 10 µM [37]: 95.5%; growth, % of control at 10 µM [38]: 99.2%; growth, % of control at 10 µM [39]: 104%; growth, % of control at 10 µM [40]: 101% |
| N#C/C(=C\c1ccc2ccccc2n1)c1ccc2c(c1)OCO2 | 5.4% | 26.7% | 59.5% | 90.3% | 48.3% | 87.1% | 88.6% | 95.3% | 45% | 81.1% | 60.8% | 64.3% | 25.8% | 51.9% | 54.1% | 41.4% | 76% | 80% | 73% | 45% | growth, % of control at 10 µM [21]: 72.8%; growth, % of control at 10 µM [22]: 81.3%; growth, % of control at 10 µM [23]: 50.2%; growth, % of control at 10 µM [24]: 86.1%; growth, % of control at 10 µM [25]: 77.8%; growth, % of control at 10 µM [26]: 70.3%; growth, % of control at 10 µM [27]: 56.8%; growth, % of control at 10 µM [28]: 69.7%; growth, % of control at 10 µM [29]: 70.8%; growth, % of control at 10 µM [30]: 66.6%; growth, % of control at 10 µM [31]: 24.7%; growth, % of control at 10 µM [32]: 104%; growth, % of control at 10 µM [33]: 20.5%; growth, % of control at 10 µM [34]: 71.9%; growth, % of control at 10 µM [35]: 86.8%; growth, % of control at 10 µM [36]: 89.9%; growth, % of control at 10 µM [37]: 62.5%; growth, % of control at 10 µM [38]: 64%; growth, % of control at 10 µM [39]: 69.6%; growth, % of control at 10 µM [40]: 34.7% |
